The record followed here is patent US5219854A, “Blood platelet-decreasing method” (Nissan Chemical Industries Ltd., priority 1991, dated 1993).

Data set [1] is described as follows: Acute toxicity test after single oral administration, dog. The following applies: in vivo, dog (beagle, 6 months old), read-out: 50% lethal dose (LD50). How it is done: (§1) These compounds have low toxicities and thus may be sufficiently used for medical products. For example, the 50% lethal dose (LD50) in the acute toxicity tests after single oral administration of 4 brome-5-(3-ethoxy-4-methoxybenzylamino)-3(2H)-pyridazinone as a typical compound thereof, was 2,000 mg/kg with respect to each of mouse (ICR strain, 6 weeks old), rat (SD strain, 6 weeks old) and dog (beagle, 6 months old).

The next data set has as its system blood platelet count. As to the kind of experiment: Change of blood platelet count at the time of repeated administration of Compound A. The data set is classed as in vivo, human (healthy adult males). How it is done:
(§2) To each of six healthy adult males (23 to 32 years age, average: 28 years age), two tablets each containing 20 mg of 4-bromo-5-(3-ethoxy-4-methoxybenzylamino)-3(2H)-pyridazinone (Compound A) were orally administered (40 mg) three times a day (120 mg) in the morning, noon and evening for 7 days (on the 7th day, administered only in the morning). Examinations were conducted with respect to the following four items from the time before the administration to the time until the 29th day after the termination of administration.
(1) Hematological Examination
(§3) Erythrocyte count, leukocyte count, hemoglobin quantity, hematocrit value, blood platelet count, reticulocyte count, leukocyte fraction and prothrombin time

A short description of data set [2]: Subjective symptoms, diagnosis by doctor, scientific and clinical examination during repeated oral administration. In kind it is in vivo, human (healthy adult males). The following applies: oral 40 mg three times a day for 7 days; until 29th day after the termination. How it is done: as §2
Everyday during the period of examination, each testee records the subjective symptoms.
A doctor makes diagnoses by asking, or ansculating and percussioning, and records their observations.
Blood pressure, pulse rate, body temperature, breathing rate, ECG (12 derivatives), pulmonary function (FVC, FEV1.0%), and visual or acoustic observation
as §3
Total protein, albumin, A/G ratio (protein fraction), BUN, creatinine, uric acid, total cholesterol, neutral fats, Na, K, Cl, Al-P, LAP, GOT, GPT, LDH, γ-GTP, ZTT, TTT, CPK, total bilirubin, direct bilirubin and blood sugar
Specific gravity, pH, bilirubin, urobilinogen, ketone body, sugar, protein and sedimentation

A short description of data set [3]: Acute toxicity test after single oral administration, rat. The note with it: in vivo, rat (SD strain, 6 weeks old), read-out: 50% lethal dose (LD50). As to the method:
as §1

Data set [4] can be described thus: Acute toxicity test after single oral administration, mouse. The note with it: in vivo, mouse (ICR strain, 6 weeks old), read-out: 50% lethal dose (LD50). As to the method: as §1

`CCOc1cc(CNc2cn[nH]c(=O)c2Br)ccc1OC` [Compound A, 4-bromo-5-(3-ethoxy-4-methoxybenzylamino)-3(2H)-pyridazinone]: the LD50 in data set [1], in data set [3] and in data set [4] was 2000 mg/kg each time. The “Blood platelet count, average value ± a standard deviation” value with blood platelet count (1st day after the termination of administration, oral 40 mg three times a day for 7 days, ***p < 0.001 vs before administration (paired t-test)) is 14.1 ± 2.0 ×10^4 /μl; in the data set with blood platelet count (6th day after the termination of administration, oral 40 mg three times a day for 7 days, **p < 0.01 vs before administration (paired t-test)), 20.4 ± 2.2 ×10^4 /μl; in the data set with blood platelet count (29th day after the termination of administration, oral 40 mg three times a day for 7 days), 29.2 ± 3.9 ×10^4 /μl; with blood platelet count (3 days after the initiation of administration, oral 40 mg three times a day (120 mg/day), **p < 0.01 vs before administration (paired t-test)), 25.0 ± 2.7 ×10^4 /μl; in the data set with blood platelet count (before the initiation of administration (baseline), six healthy adult males) it was 27.6 ± 2.6 ×10^4 /μl. Besides, in data set [2], the “Symptoms or changes in all items of examinations other than the blood platelet count” value is “no problematic symptom or change has been observed”.
